Tested on: tubulin/microtubule, PFK-bundled microtubules
Assay: Tubulin polymerization with or without PFK (bundled vs single microtubules): turbidity and pelleting with SDS-PAGE
Assay type: biochemical, calf
Settings: 10 M tubulin, 2 M drug
Source text: The numerous antimitotic drugs already developed and therapeu- tically used for a large number of pathologies belong to different classes based on their chemical structure and other distinctive features. Antimitotic drugs usually target the tubulin/microtubule network of the cytoskeleton that is formed by assembly of cyto- plasmic tubulin dimers. The stability of the different microtubular structures varies considerably; some of their functions depend on their lability. The lability is augmented by the extreme sensitivity to various drugs. Several synthetic and natural compounds interact specifically with tubulin and/or microtubule, fundamentally destroying its dynamic character and leading to cell death. […] Because of their extensive clinical use, it is important to synthesize additional agents having at least the same biological activity. […] Nevertheless, it is unclear yet how the anti-calmodulin activity of these drugs is related to their desired and undesired pharmacological effects. […] The synthesis of the KAR derivatives are presented. […] Taxol, GTP and trifluoperazine were purchased from Sigma. All organic reagents for synthesis of the new compounds were obtained from Aldrich and were of the highest grade. All other chemicals were reagent grade commercial preparations. […] Tubulin was stored in 1 M sucrose, 10 mM sodium phosphate buffer, 0.5 mM magnesium chloride and 0.1 mM GTP, pH 7.0, at -80C and dialysed against the appropriate buffer before use. […] PFK, aldolase and glycerol-3-phosphate dehydrogenase- triosephosphate isomerase purified from rabbit skeletal muscle were purchased in ammonium sulphate suspensions from Sigma or Boehringer. The enzyme suspensions were centrifuged at 10 000g for 5 min. The pellets were suspended in the appropriate buffer, then the enzymes were gel filtered or dialysed in the same buffer to remove ammonium sulphate. […] (Figure 1B; R1 , CH3; R2 , CH2 CH2 Cl). […] After 2 h incubation at room temperature, 200 ml dried toluene was added to the reaction mixture. […] The mixture was stirred for 30 min. After separation of the organic phase, it was washed with water (3 x 30 ml) and dried with potassium sulphate and evaporated on a water bath of 35-40C at 20-27 hPa. The resulting material was chromatographed on silica gel (500 g, bead size of 0.040- 0.063 mm) column (30 mm x 500 mm) using ethyl acetate/ethanol (9:1) mixture as eluent. […] The mixture was kept for 4 h at room temperature and then evaporated on a water bath at 40C under a vacuum of 80 hPa to a final volume of 5-6 ml. […] (Figure 1B, R1 , CHO; R2 , CH2 CH2 Cl). […] Synthesis of KAR-4 [3-allyl-2,4-dioxo-3,5-spiro-oxazolidino- 4-deacetoxy-vinblastine] (Figure 1B; R1 , CH3; R2 , CH2 CH=CH2 ). […] NMR measurements were carried out on a Varian Unity plus-500 instrument (500 MHz for 1H and 125 MHz for 13C) in DMSO. Chemical shifts were determined relative to dTMS = 0.00 p.p.m. 1H and 13C signal assignments were verified by a concerted use of two-dimensional 1H-1H and 1H-13C shift correlation methods (DQFCOSY, HSQC, HMBC) and NOESY experiments. The gradient-enhanced DQFCOSY, HSQC, HMBC and NOESY experiments were recorded by using the standard spectrometer software package. A mixing time of tmix = 0.5 s was used for the NOESY experiments. […] Mass spectrum was recorded on a Kratos MS 80 instrument using FAB.

CC[C@]1(O)C[C@@H]2CN(CCc3c([nH]c4ccccc34)[C@@](C(=O)OC)(c3cc4c(cc3OC)N(C)[C@@H]3[C@]45CCN4CC=C[C@@](CC)(C[C@@]36OC(=O)N(CCCl)C6=O)[C@H]45)C2)C1 [KAR-2, 3′-(β-chloroethyl)-2′,4′-dioxo-3,5′-spiro-oxazolidino-4-deacetoxy-vinblastine]
tubulin partition in pelleting experiment, without PFK (20 µM taxol, no PFK, SDS-PAGE of supernatant and pellet): practically all tubulin appears in the super- natants | tubulin partition in pelleting experiment, with PFK (bundled microtubules) (2 M PFK, 20 µM taxol, SDS-PAGE of supernatant and pellet): virtually no depolymer- izing effect | tubulin assembly by turbidity in the presence of PFK (2 M PFK, turbidity at 350 nm): PFK can overcome the inhibitory effect of KAR-2 on tubulin polymerization

Source: PMC2362735, “New semisynthetic vinca alkaloids: chemical, biochemical and cellular studies” (British Journal of Cancer, 1999)
